Earlier results as cited in patent US20260285875A1, “INHIBITORS OF PARG” (858 Therapeutics, Inc., priority 2023, published 2026).

System: sensitive cells
Conditions: S-phase dependent; cited from earlier work

In the case of PDD00017273, the “accumulation of nuclear RPA protein and induction of pan-nuclear QH2AX expression” value is given as “S-phase dependent accumulation of nuclear RPA protein and induction of pan-nuclear QH2AX expression”.
